The source of these data is patent publication EP0610519B1, “ANTI-HIV DRUG” (priority 1992, dated 1994).

For data set [1] the following is noted: rat, in vivo.
Another data set deals with HIV (type IIIB). The experiment in a line: inhibition of budding of HIV from infected H-9 cells (reverse transcriptase activity per unit culture medium as index). The note with it: H-9 cells infected with HIV (type IIIB), 15 minutes treatment, then 360 minutes culture. Format: cell-based. Here is the method: (§1) Human lymphocyte-derived H-9 cells, infected with HIV (type IIIB), were cultured in an RPMI-1640 medium (product of Biocell Laboratories) containing wortmannin and 10% fetal bovine serum (FBS) at 37°C for 15 minutes in a CO2 incubator. The H-9 cells thus obtained were washed with an RPMI-1640 medium, and then cultured in another RPMI-1640 medium containing 10% FBS at 37°C for 360 minutes in a CO2 incubator. The reverse transcriptase activity per unit culture medium was used as an index to determine the inhibitory effect of wortmannin on the budding of HIV.
(§2) The same test as mentioned above was repeated using MS-444 instead of wortmannin.

Data set [2] concerns Human lymphocyte-derived H-9 cells. Description: host cell growth in the HIV budding test. The following applies: concentration of 100 µM. Here is the method: as §1, §2

Where two headings read alike, the source gives them in different places.

On to `Cc1occ2c1C(=O)c1c(O)ccc(O)c1C2` [MS-444], for which the “acute toxicity, mortality” value in data set [1] (ip, 100 mg/kg) was “no rats died”; in data set [1] (po, 300 mg/kg), “no rats died”. Besides, the “Budding of HIV (%)” value in the data set on HIV (type IIIB) (10 µM test compound) was found to be 95%; in the data set on HIV (type IIIB) (100 µM test compound) it was 82%; in the data set with HIV (type IIIB) (1000 µM test compound) it was 20%.

With `COC[C@H]1OC(=O)c2coc3c2[C@@]1(C)C1=C(C3=O)[C@@H]2CCC(=O)[C@@]2(C)C[C@H]1OC(C)=O` [Wortmannin], the “Budding of HIV (%)” value was 67% in the data set with HIV (type IIIB) (0.1 µM test compound), 49% in the data set on HIV (type IIIB) (1.0 µM test compound) and 39% with HIV (type IIIB) (10 µM test compound). For the same compound, the Host cell growth result in data set [2] is “not influenced”.
